Test results as given in the supplement of paper PMC10307832.

Assays:
Test in all cases: relative viability (nuclei count vs DMSO), 5 days (fraction); higher = more cells survive
[1] = compound: CC(=O)c1c(C)c2cnc(Nc3ccc(N4CCNCC4)cn3)nc2n(C2CCCC2)c1=O [Palbociclib] + CC(=O)Nc1cccc(-n2c(=O)n(C3CC3)c(=O)c3c(Nc4ccc(I)cc4F)n(C)c(=O)c(C)c32)c1 [Trametinib] (partner 0.02 µM)
Method in brief: (§1)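 Medians of duplicate plates are given as relative viability. That measure is the nuclei count in treated wells divided by the count in vehicle wells. Counts were taken on 4× images of lung cancer cell lines in 1536-well plates, 5 days after pin-tool dosing the day after seeding with one drug alone or a fixed anchor-drug dose plus five library-drug doses (not always all listed) in √10 steps.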

[2] = compound: CC(=O)c1c(C)c2cnc(Nc3ccc(N4CCNCC4)cn3)nc2n(C2CCCC2)c1=O [Palbociclib] + CC1(C)CCC(c2ccc(Cl)cc2)=C(CN2CCN(c3ccc(C(=O)NS(=O)(=O)c4ccc(N[C@H](CCN5CCOCC5)CSc5ccccc5)c(S(=O)(=O)C(F)(F)F)c4)cc3)CC2)C1 [Navitoclax] (partner 0.5 µM)
Method in brief: as §1

[3] = compound: CC(=O)c1c(C)c2cnc(Nc3ccc(N4CCNCC4)cn3)nc2n(C2CCCC2)c1=O [Palbociclib] + COc1cc2c(Oc3ccc(NC(=O)C4(C(=O)Nc5ccc(F)cc5)CC4)cc3F)ccnc2cc1OCCCN1CCOCC1 [Foretinib] (partner 0.25 µM)
Method in brief: as §1

[4] = compound: CC(=O)c1c(C)c2cnc(Nc3ccc(N4CCNCC4)cn3)nc2n(C2CCCC2)c1=O [Palbociclib] + Cc1cc(Nc2cc(N3CCN(C)CC3)nc(Sc3ccc(NC(=O)C4CC4)cc3)n2)n[nH]1 [Tozasertib] (partner 0.1 µM)
Method in brief: as §1

HCC-366
relative viability ([1]; first compound 0.01 µM): 0.466 | relative viability ([1]; first compound 0.1 µM): 0.41 | relative viability ([1]; first compound 0.3162 µM): 0.298 | relative viability ([1]; first compound 1 µM): 0.24 | relative viability ([2]; first compound 0.01 µM): 1.05 | relative viability ([2]; first compound 0.1 µM): 0.996 | relative viability ([2]; first compound 0.3162 µM): 0.877 | relative viability ([2]; first compound 1 µM): 0.803 | relative viability ([3]; first compound 0.01 µM): 0.919 | relative viability ([3]; first compound 0.1 µM): 0.893 | relative viability ([3]; first compound 0.3162 µM): 0.953 | relative viability ([3]; first compound 1 µM): 0.797 | relative viability ([4]; first compound 0.01 µM): 0.135 | relative viability ([4]; first compound 0.1 µM): 0.149 | relative viability ([4]; first compound 0.3162 µM): 0.129 | relative viability ([4]; first compound 1 µM): 0.139

HCC-827
relative viability ([1]; first compound 0.01 µM): 0.545 | relative viability ([1]; first compound 0.03162 µM): 0.52 | relative viability ([1]; first compound 0.1 µM): 0.449 | relative viability ([1]; first compound 0.3162 µM): 0.476 | relative viability ([1]; first compound 1 µM): 0.399 | relative viability ([2]; first compound 0.01 µM): 1.03 | relative viability ([2]; first compound 0.03162 µM): 1.01 | relative viability ([2]; first compound 0.1 µM): 0.99 | relative viability ([2]; first compound 0.3162 µM): 0.953 | relative viability ([2]; first compound 1 µM): 0.769 | relative viability ([3]; first compound 0.01 µM): 1.03 | relative viability ([3]; first compound 0.03162 µM): 0.951 | relative viability ([3]; first compound 0.1 µM): 0.999 | relative viability ([3]; first compound 0.3162 µM): 0.977 | relative viability ([3]; first compound 1 µM): 0.734 | relative viability ([4]; first compound 0.01 µM): 0.424 | relative viability ([4]; first compound 0.03162 µM): 0.4 | relative viability ([4]; first compound 0.1 µM): 0.358 | relative viability ([4]; first compound 0.3162 µM): 0.389 | relative viability ([4]; first compound 1 µM): 0.366

HOP-62
relative viability ([1]; first compound 0.01 µM): 0.431 | relative viability ([1]; first compound 0.1 µM): 0.36 | relative viability ([1]; first compound 0.3162 µM): 0.382 | relative viability ([1]; first compound 1 µM): 0.288 | relative viability ([2]; first compound 0.01 µM): 0.959 | relative viability ([2]; first compound 0.03162 µM): 0.68 | relative viability ([2]; first compound 0.1 µM): 0.893 | relative viability ([2]; first compound 0.3162 µM): 0.86 | relative viability ([2]; first compound 1 µM): 0.625 | relative viability ([3]; first compound 0.01 µM): 0.881 | relative viability ([3]; first compound 0.1 µM): 1.02 | relative viability ([3]; first compound 0.3162 µM): 0.958 | relative viability ([3]; first compound 1 µM): 0.735 | relative viability ([4]; first compound 0.01 µM): 0.368 | relative viability ([4]; first compound 0.1 µM): 0.344 | relative viability ([4]; first compound 0.3162 µM): 0.347 | relative viability ([4]; first compound 1 µM): 0.338

IA-LM
relative viability ([2]; first compound 0.01 µM): 0.589 | relative viability ([2]; first compound 0.03162 µM): 0.43 | relative viability ([2]; first compound 0.1 µM): 0.234 | relative viability ([2]; first compound 0.3162 µM): 0.206 | relative viability ([2]; first compound 1 µM): 0.119 | relative viability ([3]; first compound 0.01 µM): 1.06 | relative viability ([3]; first compound 0.03162 µM): 0.959 | relative viability ([3]; first compound 0.1 µM): 0.862 | relative viability ([3]; first compound 0.3162 µM): 0.514 | relative viability ([3]; first compound 1 µM): 0.313

LC-2-ad
relative viability ([1]; first compound 0.01 µM): 0.966 | relative viability ([1]; first compound 0.03162 µM): 0.884 | relative viability ([1]; first compound 0.1 µM): 0.889 | relative viability ([1]; first compound 0.3162 µM): 0.804 | relative viability ([1]; first compound 1 µM): 0.666 | relative viability ([2]; first compound 0.01 µM): 0.555 | relative viability ([2]; first compound 0.1 µM): 0.402 | relative viability ([2]; first compound 0.3162 µM): 0.383 | relative viability ([2]; first compound 1 µM): 0.337 | relative viability ([3]; first compound 0.01 µM): 0.909 | relative viability ([3]; first compound 0.1 µM): 0.687 | relative viability ([3]; first compound 0.3162 µM): 0.687 | relative viability ([3]; first compound 1 µM): 0.481 | relative viability ([4]; first compound 0.01 µM): 0.461 | relative viability ([4]; first compound 0.1 µM): 0.453 | relative viability ([4]; first compound 0.3162 µM): 0.428 | relative viability ([4]; first compound 1 µM): 0.439

LCLC-97TM1
relative viability ([1]; first compound 0.01 µM): 0.209 | relative viability ([1]; first compound 0.1 µM): 0.208 | relative viability ([1]; first compound 0.3162 µM): 0.182 | relative viability ([1]; first compound 1 µM): 0.184 | relative viability ([2]; first compound 0.01 µM): 0.401 | relative viability ([2]; first compound 0.1 µM): 0.27 | relative viability ([2]; first compound 0.3162 µM): 0.294 | relative viability ([2]; first compound 1 µM): 0.281 | relative viability ([3]; first compound 0.01 µM): 0.861 | relative viability ([3]; first compound 0.03162 µM): 0.883 | relative viability ([3]; first compound 0.1 µM): 0.854 | relative viability ([3]; first compound 0.3162 µM): 0.67 | relative viability ([3]; first compound 1 µM): 0.514 | relative viability ([4]; first compound 0.01 µM): 0.218 | relative viability ([4]; first compound 0.03162 µM): 0.206 | relative viability ([4]; first compound 0.1 µM): 0.202 | relative viability ([4]; first compound 0.3162 µM): 0.216 | relative viability ([4]; first compound 1 µM): 0.169

LCLC-103H
relative viability ([1]; first compound 0.01 µM): 0.7 | relative viability ([1]; first compound 0.03162 µM): 0.617 | relative viability ([1]; first compound 0.1 µM): 0.686 | relative viability ([1]; first compound 0.3162 µM): 0.654 | relative viability ([1]; first compound 1 µM): 0.547 | relative viability ([3]; first compound 0.01 µM): 0.782 | relative viability ([3]; first compound 0.03162 µM): 0.619 | relative viability ([3]; first compound 0.1 µM): 0.8 | relative viability ([3]; first compound 0.3162 µM): 0.522 | relative viability ([3]; first compound 1 µM): 0.481 | relative viability ([4]; first compound 0.01 µM): 0.483 | relative viability ([4]; first compound 0.03162 µM): 0.385 | relative viability ([4]; first compound 0.1 µM): 0.559 | relative viability ([4]; first compound 0.3162 µM): 0.423 | relative viability ([4]; first compound 1 µM): 0.357

LK-2
relative viability ([1]; first compound 0.01 µM): 0.788 | relative viability ([1]; first compound 0.03162 µM): 0.676 | relative viability ([1]; first compound 0.1 µM): 0.752 | relative viability ([1]; first compound 0.3162 µM): 0.633 | relative viability ([1]; first compound 1 µM): 0.708 | relative viability ([2]; first compound 0.01 µM): 1.04 | relative viability ([2]; first compound 0.1 µM): 0.651 | relative viability ([2]; first compound 0.3162 µM): 0.819 | relative viability ([2]; first compound 1 µM): 0.843 | relative viability ([3]; first compound 0.01 µM): 1.12 | relative viability ([3]; first compound 0.1 µM): 1.18 | relative viability ([3]; first compound 0.3162 µM): 1.27 | relative viability ([3]; first compound 1 µM): 1.05 | relative viability ([4]; first compound 0.01 µM): 0.167 | relative viability ([4]; first compound 0.1 µM): 0.15 | relative viability ([4]; first compound 0.3162 µM): 0.196 | relative viability ([4]; first compound 1 µM): 0.167

LOU-NH91
relative viability ([1]; first compound 0.01 µM): 0.798 | relative viability ([1]; first compound 0.03162 µM): 0.662 | relative viability ([1]; first compound 0.1 µM): 0.581 | relative viability ([1]; first compound 0.3162 µM): 0.612 | relative viability ([1]; first compound 1 µM): 0.62 | relative viability ([2]; first compound 0.01 µM): 0.721 | relative viability ([2]; first compound 0.03162 µM): 0.491 | relative viability ([2]; first compound 0.1 µM): 0.457 | relative viability ([2]; first compound 0.3162 µM): 0.505 | relative viability ([2]; first compound 1 µM): 0.462 | relative viability ([3]; first compound 0.01 µM): 0.957 | relative viability ([3]; first compound 0.03162 µM): 0.86 | relative viability ([3]; first compound 0.1 µM): 0.678 | relative viability ([3]; first compound 0.3162 µM): 0.646 | relative viability ([3]; first compound 1 µM): 0.533 | relative viability ([4]; first compound 0.01 µM): 0.778 | relative viability ([4]; first compound 0.03162 µM): 0.51 | relative viability ([4]; first compound 0.1 µM): 0.541 | relative viability ([4]; first compound 0.3162 µM): 0.575 | relative viability ([4]; first compound 1 µM): 0.452

LU99A
relative viability ([1]; first compound 0.01 µM): 0.557 | relative viability ([1]; first compound 0.1 µM): 0.523 | relative viability ([1]; first compound 0.3162 µM): 0.573 | relative viability ([1]; first compound 1 µM): 0.478 | relative viability ([2]; first compound 0.01 µM): 0.789 | relative viability ([2]; first compound 0.03162 µM): 0.677 | relative viability ([2]; first compound 0.1 µM): 0.759 | relative viability ([2]; first compound 0.3162 µM): 0.601 | relative viability ([2]; first compound 1 µM): 0.522 | relative viability ([3]; first compound 0.01 µM): 0.782 | relative viability ([3]; first compound 0.03162 µM): 0.82 | relative viability ([3]; first compound 0.1 µM): 0.765 | relative viability ([3]; first compound 0.3162 µM): 0.724 | relative viability ([3]; first compound 1 µM): 0.583 | relative viability ([4]; first compound 0.01 µM): 0.314 | relative viability ([4]; first compound 0.03162 µM): 0.268 | relative viability ([4]; first compound 0.1 µM): 0.254 | relative viability ([4]; first compound 0.3162 µM): 0.308 | relative viability ([4]; first compound 1 µM): 0.25
